Results from publication PMC7901654, “Bioisosteric Discovery of NPA101.3, a Second-Generation RET/VEGFR2 Inhibitor Optimized for Single-Agent Polypharmacology” (Journal of Medicinal Chemistry, 2020).

Experiments:
[1] = tested on: Nthy-ori-3.1, BCPAP, 8505-C, PC-9, A549, CALU-1; assay: SHC/MAPK signalling in control cell lines lacking RET oncogenes; type: cell-based, human; conditions: 2 h treatment
Experimental: NPA101.3 inhibited RET autophosphorylation and signaling along the SHC/MAPK pathway in human cancer cell lines endogenously expressing RET oncogenic variants, including MTC cell lines, TT (RET/C634W) and MZ-CRC-1 (RET/M918T), and PTC cell line TPC-1 (CCDC6-RET); in the lung adenocarcinoma cell line Lc-2/ad (CCDC6-RET), only RET and SHC (but not MAPK) dephosphorylation was detectable (Figure S4).
Protein lysates were prepared according to standard procedures. Briefly, cells were lysed in a buffer containing 50 mM N-2-hydroxyethylpiperazine-N′-2-ethanesulfonic acid (HEPES; pH 7.5), 1% (v/v) Triton X-100, 150 mM NaCl, 5 mM EGTA, 50 mM NaF, 20 mM sodium pyrophosphate, 1 mM sodium vanadate, 2 mM phenylmethanesulfonyl fluoride (PMSF), and 1 μg/mL aprotinin. Lysates were clarified by centrifugation at 10000g for 15 min. […] Immune complexes were detected with the enhanced chemiluminescence kit (Amersham Pharmacia Biotech, Little Chalfont, U.K.). Anti-phospho-SHC (#Y317), which recognizes SHC protein when phosphorylated on Y317, was from Upstate Biotechnology Inc. (Lake Placid, NY). Anti-SHC (H-108) was from Santa Cruz Biotechnology (Santa Cruz, CA). Anti-MAPK (9101) and anti-phospho-MAPK (9102), specific for p42/44MAPK (ERK1/2) phosphorylated on Thr202/Tyr204, antibodies were from Cell Signaling Technologies (Danvers, MA). […]

NIH3T3 RET/C634Y tumors = type: in vivo
Experimental: In vivo target (RET and VEGFR2) inhibition was studied by treating animals grafted with NIH3T3 RET/C634Y cells at different doses (0.3, 1, or 3 mg/kg/day p.o.) of NPA101.3 for 2 days and then performing Western blot analysis on protein extracts. […] Then, to determine antitumorigenic activity and to better distinguish RET- and VEGFR2-mediated effects, we tested NPA101.3 in nude mice transplanted with NIH3T3 cells transformed by either RET/C634Y or HRAS/G12V. Before tumors appeared, animals were treated daily with NPA101.3 (1.0, 3.0, or 10.0 mg/kg/day) or left untreated. […] Still, VEGFR2 inhibition was detected also in RAS-driven tumors, an effect that might explain the, albeit reduced, effect of the drug on their growth (Figure S13). Importantly, as predicted, no trace of NPA101.3 demethyl metabolites was detected after 1 or 4 h from oral dosing in mice (Figure S14).
Figure 6 Effects of NPA101.3 on in vivo tumor growth. NIH3T3 cells transformed by RET/C634Y or HRAS/G12V were inoculated subcutaneously into nu/nu mice. After 4 days, animals were randomly assigned to receive for the indicated time periods the compound (1.0, 3.0, or 10 mg/kg/day) (24 mice; 8 mice/group for 1, 3, and 10 mg/kg doses) or vehicle (8 mice) by oral gavage. The average size of tumors is reported ± SD.
NPA101.3 was dissolved in 80% H2O, 19.875% Tween 20, and 0.125% xanthan gum. The formulation was stored at room temperature and vortexed prior to administration. NIH3T3 RET/C634Y (200000) or NIH3T3 HRAS/G12V (50000) cells were inoculated subcutaneously into the dorsal portion (both sides) of 6-week-old female BALB/c nu/nu mice (32 mice/cell line) (Jackson Laboratories, Bar Harbor, ME). After 4 days, before tumors had appeared, animals were randomly assigned to receive NPA101.3 (1.0, 3.0, or 10 mg/kg/day) (8 mice/group) or vehicle control (8 mice) by oral gavage. Tumor diameters were measured with caliper every 2–3 days. Tumor volumes (V) were calculated by the rotational ellipsoid formula V = A × B^2/2 (A is the axial diameter, and B is the rotational diameter). […] Animals were fed ad libitum on an autoclaved diet and tap water and maintained at the Dipartimento di Medicina Molecolare e Biotecnologie Mediche Animal Facility. All manipulations were performed while the animals were under isoflurane gas anesthesia. Animal studies were conducted in accordance with Italian regulations for experimentation on animals and approved by the Italian Ministry of Health (Authorization 1023/2015-PR). To compare tumor growth, an unpaired Student’s t test (InStat program, GraphPad Software) was used. P values were statistically significant at the P < 0.05 level. […]

Question: What does the source list for `CC(C)(C)c1cc(NC(=O)Cc2ccc(-n3cnc4cc(-c5ccc(S(C)(=O)=O)cc5)ccc43)cc2)no1` [NPA101.3]?
Answer: effect on SHC/MAPK signaling [1]: Virtually no effect; RET phosphorylation and signaling in NIH3T3 RET/C634Y tumors (NIH3T3 RET/C634Y tumors; 1.0 mg/kg, 3 h after last dose): strong RET phosphorylation and signaling inhibition; tumor formation induced by RET/C634Y-transformed cells (NIH3T3 RET/C634Y tumors; 10 mg/kg/day oral, nu/nu mice, treatment before tumors appeared): completely prevented; rate of growth of RET-driven tumors (NIH3T3 RET/C634Y tumors; lower doses (1.0, 3.0 mg/kg/day) oral): significantly reduced; signs of wasting or toxicity in xenograft mice (NIH3T3 RET/C634Y tumors; mouse, in vivo): No mouse showed signs of wasting or other signs of toxicity
